Starred links: 1 amine or outer side, 2 acyl side, 3 side chain; linkers in the order of their positions; H or OH if unused. Positions of bridges follow the written chain, without caps; N, C: chain ends. Non-standard residues stand in square brackets, D forms with d. Residues, ends and D or L forms follow the SMILES beside them. *: point of attachment. Cys(O)(CH2CO) = O=C([C@H](C[S+]([O-])CC(=O)[*:3])N[*:1])[*:2]; NMeF = CN[C@@H](Cc1ccccc1)C(=O)O; NMeI = CC[C@H](C)[C@H](NC)C(=O)O; NMeL = CN[C@@H](CC(C)C)C(=O)O; NMeV = CN[C@H](C(=O)O)C(C)C; NMeA = CN[C@@H](C)C(=O)O; Piperidide = C1CCN(*)CC1; Sar = CNCC(=O)O; tBu = CC(C)(C)*
Tests used:
[1] = PAMPA (parallel artificial membrane permeability assay); assay type: in vitro ADME; conditions: PAMPA, pH 6.5
Summary of the method: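 Artificial membrane was 10% (w/v) egg lecithin plus 0.5% (w/v) cholesterol in dodecane on a PVDF filter. A 10 mM DMSO stock was added at 0.5% (v/v) to donor buffer (50 mM MOPSO, pH 6.5, 5.0% glycocholic acid). After 18 h at 37 °C, LC/MS or LC/UV gave donor and acceptor levels for Pe.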

[2] = Metabolic stability in human hepatic microsome; assay type: in vitro ADME; conditions: human, microsomes, pH 7.4, CL NADPH(+)
in vivo = conditions: male, C57BL/6J, mouse, 20 mg/kg
[3] = Stability of aminoacylated pdCpA in buffers and on storage (LC-MS); assay type: physicochemical; conditions: for % by LC-MS during StBu deprotection: 250 μM Compound 2n-A, 50 mM Tris-HCl pH 7, 10 mM DTT
Procedure: The side chain StBu of pdCpA-Cys was deprotected using the precursor Compound 2n-A, and the following experiment was carried out to examine stability of the deprotected Compound 2e-A. The side chain was deprotected at room temperature under the conditions of 250 μM of Compound 2n-A, 50 mM Tris-HCl buffer, pH 7, and 10 mM DTT, and the time course of the deprotection was observed by LC-MS (SQD). The intended Compound 2e-A was not observed, and pdCpA resulting from hydrolysis of pdCpA-Cys was observed. After 5 minutes, Compound 2n-A was 51%, Compound 2e-A was 0%, and pdCpA was 49%. After 2 hours, deprotection was completed and Compound 2n-A was 0%, but Compound 2e-A was 0% and all hydrolized so that pdCpA was 100% (FIG. 13).
Stability of Compound 2n-A with the SH group of Cys protected was evaluated. Storage samples were prepared under five conditions as shown in the following Table 2 were prepared, respectively, and analyzed by LC-MS.
Stability of Compound 2n-B with the SH group of MeCys protected was also evaluated. Storage samples were prepared under four conditions as shown in the following Table 3 were prepared and analyzed by LC-MS.

[4] = Metabolic stability in mouse hepatic microsome; assay type: in vitro ADME; conditions: male, mouse, liver microsomes, pH 7.4; Table 9, thioether versus sulfoxide; read-out: Mouse Hepatic Microsome CLh, int
Procedure: The obtained compound was metabolically reacted at a concentration of 2 uM with mouse serum (male/female mixed, Valley Biomedical, USA) (adjusted to pH 7.4 with 33.5 mM HEPES buffer) for two hours. Deproteinization treatment with acetonitrile was provided over time, the amount of the remaining unchanged compound was analyzed using LC/MS, and the metabolic half-life (t1/2) was calculated. A microsome solution prepared at 0.5 mg protein/mL from mouse hepatic microsome and small intestinal microsome (male, XENOTECH, USA) using 100 mM phosphate buffer (pH 7.4) was metabolically reacted with the compound at a concentration of 1 uM for 30 minutes in the presence or absence of NADPH. Deproteinization treatment with acetonitrile was provided over time, the amount of the remaining unchanged compound was analyzed using LC/MS, and the hepatic-intrinsic clearance (CLh, int) and the small intestinal-intrinsic clearance (CLg, int) were calculated (Table 7). Such peptides were sufficiently slowly metabolized by hydrolysis with peptidases or the like in mouse sera and microsomes, contrary to peptides composed of natural amino acids having low lipophilicity.
Metabolic stability tests were carried out in the same manner as shown in 2-1.

[5] = room temperature, after 5 minutes
[6] = room temperature, after 2 hours
[7] = In AcONa buffer, 1 mM, pH 5, room temperature, 1 hour
[8] = In DMSO, 5 mM, pH 4, 0° C., 2.5 days
[9] = In HEPES buffer, 1 mM, pH 7, room temperature, 1 hour
[10] = Stored as solid, room temperature, 16 days
[11] = pdCpA-MeCys(StBu): In AcONa buffer, 1 mM, pH 5, room temperature, 5 hours
[12] = pdCpA-MeCys(StBu): In DMSO, 5 mM, pH 4, 0° C., 1 day
[13] = pdCpA-MeCys(StBu): In HEPES buffer, 1 mM, pH 7, room temperature, 1 hour
[14] = pdCpA-MeCys(StBu): In Tris buffer, 1 mM, pH 7, room temperature, 1 hour

SMILES | Papp at 18 hours, 50 µM [1] [×10⁻⁶ cm/s] | microsomal CLint at 1 uM [2] [µL/min/mg] | AUC (in vivo; iv) [ng·h/mL] | C0 (in vivo; iv) [µg/mL] | Vd (in vivo; iv) [L/kg] | clearance (in vivo; iv) [mL/min/kg] | half-life (in vivo; iv) [h] | AUC (in vivo; po) [ng·h/mL] | CL/F (in vivo; po) [mL/min/kg] | Cmax (in vivo; po) [µg/mL] | Tmax (in vivo; po) [h] | bioavailability (in vivo; po) [%] | half-life (in vivo; po) [h] | also measured
CC[C@H](C)[C@H]1C(=O)N[C@@H](COC(C)(C)C)C(=O)N(C)[C@@H](Cc2ccccc2)C(=O)N(C)[C@@H](C(C)C)C(=O)N[C@H](C(=O)N2CCCCC2)CC(=O)N(C)[C@@H](C)C(=O)N(C)[C@@H](Cc2ccccc2)C(=O)N[C@@H](CC(C)C)C(=O)N(C)[C@@H](CC(C)C)C(=O)N[C@@H]([C@@H](C)O)C(=O)N(C)CC(=O)N1C [DP-47] ([NMeA][NMeF]L[NMeL]T[Sar][NMeI]S(tBu)[NMeF][NMeV]D-Piperidide; lactam N-11) | 50 | 37 | 202000 | 107 | 0.381 | 1.66 | 2.68 | 38000 | 8.86 | 4.49 | 2.67 | 18.8 | 3.88 | –
CC(C)C[C@H]1C(=O)N2CCC[C@H]2C(=O)N(C)[C@@H](CC(C)C)C(=O)N[C@@H](C)C(=O)N(C)[C@@H](C(C)C)C(=O)N[C@H](C(=O)N2CCCCC2)CC(=O)N(C)[C@@H](C)C(=O)N[C@@H]([C@@H](C)O)C(=O)N(C)CC(=O)N(C)[C@@H](Cc2ccccc2)C(=O)N(C)[C@@H](Cc2ccccc2)C(=O)N1C [DP-67] ([NMeA]T[Sar][NMeF][NMeF][NMeL]P[NMeL]A[NMeV]D-Piperidide; lactam N-11) | 23 | 15 | 70700 | 102 | 0.431 | 4.74 | 3.25 | 10900 | 37.9 | 2.31 | 3.5 | 15.5 | 4.36 | –
CC(C)(C)SSC[C@H](N)C(=O)O[C@H]1[C@@H](O)[C@H](n2cnc3c(N)ncnc32)O[C@@H]1COP(=O)(O)O[C@H]1C[C@H](n2ccc(N)nc2=O)O[C@@H]1COP(=O)(O)O [Compound 2n-A, (2R)-(2R,3S,4R,5R)-2-((((((2R,3S,5R)-5-(4-amino-2-oxopyrimidin-1(2H)-yl)-2-((phosphonooxy)methyl)tetrahydrofuran-3-yl)oxy)(hydroxy)phosphoryl)oxy)methyl)-5-(6-amino-9H-purin-9-yl)-4-hydroxytetrahydrofuran-3-yl 2-amino-3-(tert-butyldisulfanyl)propanoate] | – | – | – | – | – | – | – | – | – | – | – | – | – | % by LC-MS during StBu deprotection [3, 5]: 51%; % by LC-MS during StBu deprotection [3, 6]: 0%; % remaining by LC-MS [3, 7]: 70%; % remaining by LC-MS [3, 8]: 58%; % remaining by LC-MS [3, 9]: 30%; % remaining by LC-MS [3, 10]: 64%
CC[C@H](C)[C@H]1C(=O)N[C@@H]([C@@H](C)O)C(=O)N(C)CC(=O)N(C)[C@@H](CC(C)C)C(=O)N[C@H](C(=O)N2CCCCC2)CC(=O)N(C)[C@@H](C)C(=O)N[C@@H](CC(C)C)C(=O)N(C)[C@@H](CC(C)C)C(=O)N(C)[C@@H](Cc2ccccc2)C(=O)N[C@@H](C)C(=O)N(C)[C@@H](Cc2ccccc2)C(=O)N1C [DP-101] ([NMeA]L[NMeL][NMeF]A[NMeF][NMeI]T[Sar][NMeL]D-Piperidide; lactam N-11) | 56 | 101 | 83300 | 112 | 0.455 | 4.01 | 1.91 | 12700 | 26.2 | 2.32 | 1.83 | 15.2 | 2.27 | –
CN[C@@H](CSSC(C)(C)C)C(=O)O[C@H]1[C@@H](O)[C@H](n2cnc3c(N)ncnc32)O[C@@H]1COP(=O)(O)O[C@H]1C[C@H](n2ccc(N)nc2=O)O[C@@H]1COP(=O)(O)O [pdCpA-MeCys(StBu), (2R)-(2R,3S,4R,5R)-2-((((((2R,3S,5R)-5-(4-amino-2-oxopyrimidin-1(2H)-yl)-2-((phosphonooxy)methyl)tetrahydrofuran-3-yl)oxy)(hydroxy)phosphoryl)oxy)methyl)-5-(6-amino-9H-purin-9-yl)-4-hydroxytetrahydrofuran-3-yl 3-(tert-butyldisulfanyl)-2-(methylamino)propanoate] | – | – | – | – | – | – | – | – | – | – | – | – | – | % remaining by LC-MS [3, 11]: 100%; % remaining by LC-MS [3, 12]: 100%; % remaining by LC-MS [3, 13]: 49%; % remaining by LC-MS [3, 14]: 35%
CC[C@H](C)[C@H]1C(=O)N[C@H](C(=O)N2CCCCC2)C[S+]([O-])CC(=O)N(C)[C@@H](C)C(=O)N[C@@H](Cc2ccccc2)C(=O)N(C)[C@@H](CC(C)C)C(=O)N[C@@H]([C@@H](C)O)C(=O)N(C)CC(=O)N(C)[C@@H](CC(C)C)C(=O)N[C@@H](COC(C)(C)C)C(=O)N1C (stereo partly drawn) [Compound P-117, (5S,8S,11S,14S,20S,23S,26S,29R)-8-benzyl-23-(tert-butoxymethyl)-26-((S)-sec-butyl)-14-((R)-1-hydroxyethyl)-11,20-diisobutyl-4,5,10,16,19,25-hexamethyl-29-(piperidine-1-carbonyl)-1-thia-4,7,10,13,16,19,22,25,28-nonaazacyclotriacontane-3,6,9,12,15,18,21,24,27-nonone 1-oxide] ([NMeA]F[NMeL]T[Sar][NMeL]S(tBu)[NMeI][Cys(O)(CH2CO)]-Piperidide; lactam N-9) | – | – | – | – | – | – | – | – | – | – | – | – | – | microsomal CLint at 1 uM [4]: 36 µL/min/mg
Nc1ccn([C@H]2C[C@H](OP(=O)(O)OC[C@H]3O[C@@H](n4cnc5c(N)ncnc54)[C@H](O)[C@@H]3O)[C@@H](COP(=O)(O)O)O2)c(=O)n1 [pdCpA, ((2R,3S,5R)-5-(4-amino-2-oxopyrimidin-1(2H)-yl)-3-(((((2R,3S,4R,5R)-5-(6-amino-9H-purin-9-yl)-3,4-dihydroxytetrahydrofuran-2-yl)methoxy)(hydroxy)phosphoryl)oxy)tetrahydrofuran-2-yl)methyl dihydrogenphosphate, reference compound] | – | – | – | – | – | – | – | – | – | – | – | – | – | % by LC-MS during StBu deprotection [3, 5]: 49%; % by LC-MS during StBu deprotection [3, 6]: 100%; % remaining by LC-MS [3, 7]: 30%; % remaining by LC-MS [3, 8]: 42%; % remaining by LC-MS [3, 9]: 70%; % remaining by LC-MS [3, 10]: 36%; % remaining by LC-MS [3, 11]: 0%; % remaining by LC-MS [3, 12]: 0%; % remaining by LC-MS [3, 13]: 51%; % remaining by LC-MS [3, 14]: 65%
CC[C@H](C)[C@H]1C(=O)N[C@H](C(=O)N2CCCCC2)C[S+]([O-])CC(=O)N(C)[C@@H](Cc2ccccc2)C(=O)N(C)[C@@H](C)C(=O)N(C)[C@@H](Cc2ccccc2)C(=O)N(C)[C@@H](CC(C)C)C(=O)N[C@@H]([C@@H](C)O)C(=O)N(C)CC(=O)N(C)[C@@H](CC(C)C)C(=O)N[C@@H](COC(C)(C)C)C(=O)N1C (stereo partly drawn) [Compound P-116, (5S,8S,11S,14S,17S,23S,26S,29S,32R)-5,11-dibenzyl-26-(tert-butoxymethyl)-29-((S)-sec-butyl)-17-((R)-1-hydroxyethyl)-14,23-diisobutyl-4,7,8,10,13,19,22,28-octamethyl-32-(piperidine-1-carbonyl)-1-thia-4,7,10,13,16,19,22,25,28,31-decaazacyclotritriacontane-3,6,9,12,15,18,21,24,27,30-decone 1-oxide] ([NMeF][NMeA][NMeF][NMeL]T[Sar][NMeL]S(tBu)[NMeI][Cys(O)(CH2CO)]-Piperidide; lactam N-10) | – | – | – | – | – | – | – | – | – | – | – | – | – | microsomal CLint at 1 uM [4]: 56.5 µL/min/mg
